Results from a melting point compilation (Tetko et al.; mined from patent text by program, amines drawn as free bases though some values may be those of a salt).

melting point [°C]	SMILES
259 to 261	Oc1ncc(-c2cccc(F)c2)cn1
215	Nc1c(Nc2cccc3cnccc23)c(=O)c1=O
223	Cc1nnsc1C(=O)Nc1ccccc1C(=O)O
79 to 81	Cc1ccc(S(=O)(=O)N2CCCC2C(=O)NC(Cc2ccc(OCC(=O)OCc3ccccc3)cc2)C(=O)O)cc1 (stereo not given)
158 to 160	CC(=O)Nc1cc([N+](=O)[O-])c(F)cc1Cl
148 to 150	CC(C)c1cc(S(=O)(=O)c2ccc(N)cc2)cc(N2CCCC2)n1
143 to 144	O=C1Nc2ccc(Cl)cc2[C@@](/C=C/C2CC2)(C(F)(F)F)O[C@H]1C1CC1 (relative stereo)
127 to 128	COc1c(OC)c(OC)c2c(c1OC)c(=O)c1ccc(OCc3ccccc3)c(OC)c1n2C
151 to 152	COc1cc2c(cc1OC)-c1cc(=Nc3c(C)cc(C)cc3C)n(C)c(=O)n1CC2
168 to 170	O=C(c1cccs1)c1cccc(O)c1C(=O)O
114 to 116	Cc1cccc2c1C=Cc1ccccc1C2O (stereo not given)
86 to 89	CCN(CC)C(=O)c1ccc2ccccc2c1/C=C/c1ccccc1
122	CC(=CC(=O)c1ccc(C(F)(F)F)cc1[N+](=O)[O-])N(C)C
62 to 64	COC(=O)C(C)=Cc1ccc(OCCCNc2ccc(Cl)cc2)cc1
156	COCc1cnc2c(NC(=O)c3ccccc3C(F)(F)F)cccc2c1N1CCN(C)C1=O
72 to 74	CCOC(=O)c1cccn2cc(C(C)(C)C)nc12
140 to 142	COCCOc1ccc2c(c1)C1(CO2)C(=O)N(Cc2ccccn2)c2ccccc21 (stereo not given)
79 to 82	COc1cccc([C@H](O)C[C@@H]2CCCN2C)c1 (relative stereo)
221 to 222	CCc1[nH]n(C2CCCC2)c2nc(-c3ccccc3)nc(=O)c1-2
249 to 251	O=C1CCCC2=C1C(c1cccc(F)c1)C1=C(CCCC1)N2 (stereo not given)
70 to 72	COC(=O)c1ccc(S(C)(=O)=O)c(C(=O)NC(C)(C)CO)c1Cl
172 to 173	O=C1C=CC(=O)c2nccnc21

melting point [°C]	SMILES
201 to 202	NC1CCN(C(=O)c2ccc(-c3[nH]nc4c3C(=O)c3c(NC(=O)NN5CCOCC5)cccc3-4)s2)C1 (stereo not given)
210 to 212	CN1C(=O)Cc2cc(C(=O)[C@H]3CC[C@H]3C(=O)O)ccc21 (relative stereo)
180 to 181	CCCC(=O)Nc1ccc(-c2cc(C(C)(C)C)c(O)c(C(C)(C)C)c2)cc1
144 to 146	O=C(Nc1ccc(C(=O)N2CCCCc3ccccc32)c(Cl)c1)OCCOc1ccccc1
89 to 90	Cc1ccc2c(c1)C(CCCCOS(C)(=O)=O)C(=O)N2 (stereo not given)
184	COn1c(=S)n(C)c(=O)c2ccccc21
110	N#Cc1ccc(CC23CCCN2C(=O)N(c2cc(Cl)cc(-n4cccc4C=O)c2)C3=O)cc1 (stereo not given)
156 to 158	CC(=O)OCC1OC(OCC(=O)c2cc(OCc3ccccc3)c(OCc3ccccc3)c(OCc3ccccc3)c2)C(OC(C)=O)C(OC(C)=O)C1OC(C)=O (stereo not given)
129 to 130	COc1ccc(C2C=C3CN(C)CCC3C3C(=O)N(C)C(=O)C23)cc1 (stereo not given)
179 to 181	O=c1c2cc(F)c(F)cc2n(-c2cccc(F)c2)c(=O)n1OCc1ccccc1
163 to 164	CCOC(=O)c1ccc(-c2csc(-c3ccc(C(F)(F)F)cc3)n2)cc1
191	CCOc1ccc2c(c1)n(C1CCCCC1)c(=O)n2Cc1ccc(N)cc1OC
89 to 91	O=c1[nH]nc(CN2CC[C@H](OCc3cc(C(F)(F)F)cc(C(F)(F)F)c3)[C@H](c3ccccc3)C2)[nH]1 (relative stereo)
262 to 264	COc1cccc2c1C(=O)c1c(OC)cc(-c3nnn[nH]3)cc1C2=O
72	COC1OC(=O)CC(C)(C)C1O (stereo not given)
154 to 155	COc1cc(CNC(=O)c2oc(=O)c3ncccc3c2-c2ccc(C)cc2)cc(OC)c1
190 to 191	O=C(CCl)c1ccc2c(c1)Nc1ccccc1S2
99 to 100	COc1ccc(C2(C#Cc3cccc(-c4noc(C(F)(F)F)n4)c3)CCCC(=O)C2)cc1OC1CCCC1 (stereo not given)
214	Cc1coc(NC(=S)Nc2ccc(Cl)cc2C)n1
161 to 162	CCCOC(=O)C(N)C=CCP(=O)(O)O (stereo not given)
164 to 166	COC(=O)c1cc(C(=O)NNC(=O)c2ccccn2)c2cc(Cc3ccc(F)cc3)cnc2c1O
234 to 236	CC(=O)Nc1ccc(S(=O)(=O)Nc2cccnc2Nc2ccccc2)cc1

melting point [°C]	SMILES
> 300	Cn1c(=O)c2[nH]c(C=Cc3cccc(N)c3)nc2n(C)c1=O
95 to 96	CC1=C(C)C(Cl)N(c2ccc(Cl)c(Cl)c2)C1=O (stereo not given)
101 to 105	COc1cc(/C=C/C=C/C(=O)NCCN2CCC(c3c[nH]c4ccccc34)CC2)ccc1OC(C)=O
53 to 55	CCC(C)C(CN[C@@H](Cc1ccccc1)C(=O)OCc1ccccc1)NC(=O)OC(C)(C)C (stereo not given in full)
118 to 122	O=c1[nH]c2cscc2c(=O)n1CCCCCN1CCC(=C(c2ccc(F)cc2)c2ccc(F)cc2)CC1
201	CC(C)(C)OC(=O)Nc1cc(N2CCOC2=O)c(-c2ccc(F)cc2)cc1[N+](=O)[O-]
171 to 173	CCNc1nc(OC)c(C(=O)NC2CCN(C3CCCCC3)C2)nc1Cl (stereo not given)
110 to 111	CN1CCC(c2c[nH]c3ccc(NC(=O)c4cccc(Cl)c4)nc23)CC1
150 to 152	COC(=O)COc1nc(N)nc(-c2ccccc2)c1-c1ccc(=O)n(C(C)C)n1
82.3 to 91.5	CS(=O)(=O)c1ncc2cc(Oc3ccccc3F)c(=O)n(-c3ccc(F)cc3)c2n1
134 to 136	C=CCOc1ccc(C#N)c(O)c1
146	COc1ccc(Nc2nc(Cl)nc(NC3CCCCCC3)n2)cc1Cl
158 to 160	O=[N+]([O-])c1ccc(OCc2ccccc2)c2cnsc12
98.5 to 99	CCCCOCCOc1ccc(-c2ccc(N3CCC(=O)C3)c(C=C(C)C(=O)OCC)c2)cc1
156 to 157	COC(=O)c1ccc(/C=C/c2nc(-c3ccccc3)c(C)s2)cc1
58 to 62	CC(=O)OCCC1(C)CCc2c(C)c(OCc3ccccc3)c(C)c(C)c2O1 (stereo not given)
242 to 243	CS(=O)(=O)c1ccc(C(=O)c2cc(-c3ccc(Cl)cc3)c(N3CCOCC3)s2)cc1
87 to 90	C[C@@H]1CCN(C(=O)C(C)(C)C)[C@@H](C(=O)O)C1
79 to 80	COC(=O)c1ccccc1NC(=O)CC(C)=O
108 to 109	COc1ccc(C2CCCC(=O)N2c2ccc(OC)cc2)cc1 (stereo not given)
78 to 79	Cc1nn(-c2ccc(Cl)c3c2CC(C)O3)c(=O)n1C(F)F (stereo not given)
80.7	CCOCCn1c(CN2CCN(CC#N)CC2)nc2cccnc21

SMILES	melting point [°C]
N#Cc1nn(-c2c(Cl)cc(C(F)(F)F)cc2Cl)c(N)c1-c1cccc([N+](=O)[O-])c1	212 to 214
O=c1[nH]c2ccccc2c2c1CNCC2	292 to 295
CN1CCCN=C1C(Br)(Br)[N+](=O)[O-]	106 to 107
CCCN(CCC)Cc1nnc(-c2ncn3c2[C@@H]2CCCN2C(=O)c2c(Cl)cccc2-3)o1	158 to 160
